{"source": "patent US7884093B2", "about": "“Progesterone for the treatment or prevention of spontaneous preterm birth” (priority 2007, dated 2011)", "key": {"[1]": {"tested_on": "cervix length of pregnant women", "assay": "Cervical length by transvaginal ultrasound at baseline and at 28 weeks of gestation", "format": "in vivo, human", "details": "baseline to 28 weeks gestation, all participants, 6-10 weeks of dosing", "experimental": "(§1) Following randomization, daily treatment was initiated by the patient and continued until 37 0/7 weeks' gestational age, occurrence of preterm rupture of membranes, or delivery. Each patient was evaluated at 2-week intervals. All subjects had another transvaginal ultrasound to determine cervical length at 28 weeks of gestation.\nPrior to beginning the study, baseline measurements of each of the participant's cervical length were taken and are summarized in FIG. 1. During the study, cervical length measurements were made by ultrasound at both baseline and later at 28 weeks after a period of 6-10 weeks of dosing. The mean cervix length of 3.7 cm was the same for both the treatment and placebo groups, and the range of cervical length for all participants was between 1.1 cm and 7.9 cm. At 28 weeks gestation, each participant's cervix was re-measured and the data was compared to the baseline data, and an unexpected and surprising finding was discovered."}, "[2]": {"tested_on": "pregnant women with a history of spontaneous preterm birth", "assay": "Randomized, double-blind, placebo-controlled trial of vaginal progesterone gel on preterm birth", "format": "in vivo, human", "experimental": "In light of the state of the art, a study was conducted to examine the effects of progesterone on preterm labor and premature birth in women with a history of a previous preterm birth. […] The selection, categorization, and breakdown of the two groups is outlined in the flow chart of FIG. 2. The study was a prospective, randomized, placebo-controlled, double-blind, multicenter trial in pregnant subjects at high risk of spontaneous preterm delivery. The study participants were screened from 16 0/7 and 22 6/7 weeks gestational age. Subjects were randomized to drug or placebo from 18 0/7 to 22 6/7 weeks.\n(§2) Subjects meeting the study criteria were enrolled by the investigator between 18 0/7 and 22 6/7 weeks and received identically packaged, sequentially numbered progesterone or placebo vaginal gel in a 1:1 ratio. A SAS (SAS Institute Inc., Cary, N.C., USA) procedure for variable block size was used to generate a randomization schedule stratified by study site and by inclusion criteria (prior preterm birth or short cervix). Quintiles, Inc. (Kansas City, Mo., USA) generated the randomization sequences, which were confidentially provided to the packaging company. Treatment allocation was concealed by an identical packaging and labelling process performed by Aptuit, Inc. (Mount Laurel, N.J., USA). The study patients, obstetric care providers, study investigators, study coordinators, and study monitors were blind to the exposure status (progesterone or placebo) of all study patients.\nSubjects were randomized in a 1:1 ratio to receive PROCHIEVE® 8% (vaginally administered 90 mg natural progesterone gel) or placebo vaginal gel. All women performed self-dosing on a daily basis of their assigned study medication, either PROCHEIVE® (progesterone) or placebo.\nStatistical analysis was based on the intent-to-treat principle.\nPatients who were currently or previously enrolled in another investigational study within 1 month prior to screening for the present study were not included in the trial. Patients were also restricted from participation in the trial if the present pregnancy was complicated by a major fetal anomaly or a known chromosome disorder, or was a multifetal gestation. Patients with a cervical cerclage in place, or those intending to have one placed during the current pregnancy, were excluded from study participation, as were those with signs of preterm rupture of membranes, vaginal bleeding, amnionitis, or preterm labor at enrollment.\nThe study drug was packaged and labelled according to the 1:1 randomization scheme provided by Quintiles, Inc (Kansas City, Mo., USA). A SAS (SAS Institute Inc., Cary, N.C., USA) procedure for variable block size was used to generate the randomization schedule stratified by study site. […] The study drug (Prochieve® 8% progesterone gel) and placebo (Replens®) were provided by Columbia Laboratories, Inc. (Livingston, N.J., USA). Patients were instructed to self-administer the full applicator of vaginal gel at approximately the same time daily, preferably in the morning. Patients received a 2-week supply of the allocated treatment at the time of randomization, and at every 2-week study visit thereafter. All drug supplies were to be brought in at each visit at all study centers, and compliance with the study medication was determined from returned empty wrappers and unused wrappers. Percent compliance was assessed as total treatment duration compliance: (total applicators used/total dosing days)×100. Total dosing days was defined as the interval from enrollment to either the date of preterm premature rupture of membranes, the date of preterm birth without accompanying ruptured membranes, or 37 0/7 weeks' gestation.\nThe occurrence of adverse events was queried at each 2-week study visit at all centers by asking if the patient had any complaints or problems. Subjects received an extra 1-week drug supply when treatment was initiated in case they could not make the next regularly scheduled appointment."}, "[3]": {"tested_on": "pregnant women at risk of preterm birth", "details": "cited from earlier work"}, "[4]": {"tested_on": "pregnant women with a short cervix", "assay": "Randomized trial, analysis of women with a shortened cervix in the midtrimester", "format": "in vivo, human", "experimental": "The study further included women without a history of preterm birth and having a short cervix at the time of enrollment. […] The lowest quartile (≦3.2 cm) was combined with the short cervix only patients and subdivided sequentially and the primary and secondary outcomes for women with cervical lengths of ≦3.0 cm and <2.8 cm at the time of enrollment were analyzed. There were an insufficient number of patients with even shorter cervical lengths available for further analysis. For the purposes of the study, the criteria for short cervix was set at less than 2.8 cm.\nThe study included women with a documented history of spontaneous preterm birth (<35 weeks) in a singleton pregnancy in the immediate preceding parity regardless of cervical length, and women without a history of preterm birth but with midtrimester cervical shortening (≦2.5 cm) in the current pregnancy were offered enrollment in the study at 18 0/7-22 6/7 weeks of gestation. Recruitment began in April 2004 and the last patient delivered Jan. 8, 2007.\nTherefore, women were excluded if any of the following conditions were present: age <18 or >45 years; multifetal gestation; history of an adverse reaction to progesterone or any component present in the treatment medication; treatment with progesterone within 4 weeks preceding enrollment; or current treatment for a seizure disorder, psychiatric disorder, or chronic hypertension. […] Patients who were currently or previously enrolled in another investigational study within one month prior to randomization were not included.\nPatients were also restricted from participation in the trial if the present pregnancy was complicated by a major fetal anomaly or a known chromosome disorder. Patients with a cervical cerclage in place, or those intending to have one placed during the current pregnancy, were excluded from the study, as were those with signs of preterm rupture of membranes, vaginal bleeding, amnionitis, or preterm labor at enrollment.\nas §2, with “Women with a history of spontaneous preterm birth in the preceding pregnancy regardless of cervical length or women without a history of preterm birth but with midtrimester cervical shortening in the current pregnancy were screened by the investigator or study coordinator between 16 0/7 and 22 6/7 weeks of gestation. Prior history of spontaneous preterm birth was confirmed by evaluation of the patient's medical records before enrollment. Gestational age was based on the patient's last menstrual period and correlated with an ultrasound biometry algorithm. Each patient had at least one ultrasound examination before randomization to confirm gestational age and rule out major fetal anomalies, and a transvaginal scan to determine the length of the cervix. Subjects” for “Subjects”\nas §1"}, "[5]": {"details": "ITT, history of spontaneous preterm birth"}, "[6]": {"details": "neonates, history of spontaneous preterm birth"}, "[7]": {"details": "baseline cervical length ≦3.0 cm, total 58"}, "[8]": {"details": "cervical length <2.8 cm, versus placebo"}}}
{"smiles": "CC(=O)[C@H]1CC[C@H]2[C@@H]3CCC4=CC(=O)CC[C@]4(C)[C@H]3CC[C@]12C", "note": "[progesterone]", "values": [{"measurement": "mean decrease in cervix length", "setting": "[1]", "value": 0.44, "unit": "cm"}, {"measurement": "admissions for preterm labor", "setting": "[2]; [5]", "value": 25.6, "unit": "%"}, {"measurement": "head circumference of the neonates", "setting": "[2]; [5]", "value": "32.3±3.34", "unit": "cm"}, {"measurement": "mean birth weight of the neonates", "setting": "[2]; [5]", "value": "2680±710", "unit": "gm"}, {"measurement": "mean gestational age at delivery", "setting": "[2]; [5]", "value": 36.6, "unit": "weeks"}, {"measurement": "rate of preterm birth at <37 0/7 weeks", "setting": "[2]; [5]", "value": 41.7, "unit": "%"}, {"measurement": "rate of preterm birth at ≦28 0/7 weeks", "setting": "[2]; [5]", "value": 3.2, "unit": "%"}, {"measurement": "rate of preterm birth at ≦35 0/7 weeks", "setting": "[2]; [5]", "value": 22.7, "unit": "%"}, {"measurement": "rate of preterm rupture of membranes", "setting": "[2]; [5]", "value": 12.0, "unit": "%"}, {"measurement": "rate of stillbirth/intrauterine fetal demise", "setting": "[2]; [5]", "value": 1.6, "unit": "%"}, {"measurement": "rate of preterm birth at ≦32 0/7 weeks of gestation (primary outcome)", "setting": "[2]; ITT, history of spontaneous preterm birth, 8% progesterone vaginal gel 90 mg once daily", "value": 10.0, "unit": "%"}, {"measurement": "1-minute APGAR score, median", "setting": "[2]; neonates", "value": 8}, {"measurement": "5-minute APGAR score, median", "setting": "[2]; neonates", "value": 9}, {"measurement": "occurrence of grade 3 or 4 intraventricular haemorrhage", "setting": "[2]; [6]", "value": 0.3, "unit": "%"}, {"measurement": "occurrence of necrotizing enterocolitis", "setting": "[2]; [6]", "value": 1.0, "unit": "%"}, {"measurement": "occurrence of newborn respiratory distress syndrome", "setting": "[2]; [6]", "value": 11.0, "unit": "%"}, {"measurement": "rate of admission to a neonatal intensive care unit", "setting": "[2]; [6]", "value": 17.5, "unit": "%"}, {"measurement": "number of days from admission to delivery", "setting": "[2]; patients admitted for treatment of preterm labor", "value": 30, "unit": "days"}, {"measurement": "mean gestational age at delivery, infant morbidity or mortality, or other maternal or neonatal outcome measure", "setting": "[2]; versus placebo, in words", "value": "no difference"}, {"measurement": "treatment emergent adverse events", "setting": "[2]; versus placebo, in words", "value": "similar"}, {"measurement": "frequency of preterm birth at ≦32 weeks", "setting": "[2]; versus placebo, in words, history of spontaneous preterm birth", "value": "did not decrease"}, {"measurement": "frequency of preterm birth at ≦32 weeks", "setting": "[2]; versus placebo, in words, history of spontaneous preterm birth, listed as vaginal progesterone gel", "value": "does not effectively reduce"}, {"measurement": "occurrence of perinatal death", "setting": "[3]; Dodd et al. meta-analysis of randomized trials, versus placebo", "value": "no statistically significant difference"}, {"measurement": "frequency of recurrent preterm birth", "setting": "[3]; O'Brien et al., high risk women selected by a history of spontaneous preterm birth, prophylactic vaginal gel", "value": "does not effectively reduce"}, {"measurement": "time to delivery (Kaplan-Meier curve)", "setting": "[4]; baseline cervical length greater than 3.2 cm, versus placebo", "value": "no statistically significant difference"}, {"measurement": "time to delivery (Kaplan-Meier curve)", "setting": "[4]; baseline cervical length less than 2.8 cm, versus placebo", "value": "probability of not delivering over a longer gestation period"}, {"measurement": "time to delivery (Kaplan-Meier curve)", "setting": "[4]; baseline cervical length less than or equal to 3.0 cm, versus placebo", "value": "probability of not delivering over a longer gestation period"}, {"measurement": "time to delivery (Kaplan-Meier curve)", "setting": "[4]; baseline cervical length less than or equal to 3.2 cm, versus placebo", "value": "probability of not delivering over a longer gestation period"}, {"measurement": "Births >32 Weeks, Number", "setting": "[4]; baseline cervical length ≦2.8 cm, total 19", "value": 19}, {"measurement": "Births >32 Weeks, Number", "setting": "[4]; [7]", "value": 54}, {"measurement": "Births ≦32 Weeks, Number", "setting": "[4]; [7]", "value": 4}, {"measurement": "NICU admissions", "setting": "[4]; cervical length <2.8 cm", "value": 15.8, "unit": "%"}, {"measurement": "fetal/infant deaths", "setting": "[4]; cervical length <2.8 cm", "value": "none"}, {"measurement": "length of NICU stay", "setting": "[4]; cervical length <2.8 cm", "value": 1.1, "unit": "days"}, {"measurement": "preterm deliveries at less than or equal to 28 weeks, number", "setting": "[4]; cervical length <2.8 cm", "value": "no preterm deliveries"}, {"measurement": "rate of neonatal respiratory distress syndrome", "setting": "[4]; cervical length <2.8 cm", "value": 5.3, "unit": "%"}, {"measurement": "total neonatal hospital days", "setting": "[4]; cervical length <2.8 cm", "value": 5.8, "unit": "days"}, {"measurement": "rate of preterm birth at ≦32 weeks", "setting": "[4]; cervical length <2.8 cm at enrollment, 19 on progesterone", "value": 0, "unit": "%"}, {"measurement": "reduction of the number of preterm delivery at less than 35 weeks", "setting": "[4]; [8]", "value": "about half"}, {"measurement": "reduction of the number of preterm delivery at less than or equal to 37 weeks", "setting": "[4]; [8]", "value": "about half"}, {"measurement": "delivering ≦32 weeks gestation", "setting": "[4]; short cervix only population, no history of preterm birth, 4 patients on progesterone", "value": 0}]}
